Laboratory results taken from PMC9139979, “Features of ZED1227: The First-In-Class Tissue Transglutaminase Inhibitor Undergoing Clinical Evaluation for the Treatment of Celiac Disease” (Cells, 2022).
Square brackets hold non-standard residues; d marks the D form. Peptide text beside a SMILES is read from it. * marks the point of attachment. Nle(5E-ene,6-CO2Et) = CCOC(=O)/C=C/CC[C@H](N)C(=O)O; DON = [N-]=[N+]=CC(=O)CC[C@H](N)C(=O)O; Cbz = O=C(OCc1ccccc1)*

Legend:
[1] = target: T1, hTG2 (Homo sapiens, UniProt P21980); test: Fluorescent transamidation assay (DCC-assay), hTG2; type: biochemical; settings: for IC50: recombinant human TG2, transamidation assay, apparent IC50 of irreversible inhibitor, read-out: App. IC50 hTG2; for Fold less potent compared to ZED1227 (hTG2): same transamidation assay
T1 construct: purchased Zedira T022
T1 sequence (P21980 1-687): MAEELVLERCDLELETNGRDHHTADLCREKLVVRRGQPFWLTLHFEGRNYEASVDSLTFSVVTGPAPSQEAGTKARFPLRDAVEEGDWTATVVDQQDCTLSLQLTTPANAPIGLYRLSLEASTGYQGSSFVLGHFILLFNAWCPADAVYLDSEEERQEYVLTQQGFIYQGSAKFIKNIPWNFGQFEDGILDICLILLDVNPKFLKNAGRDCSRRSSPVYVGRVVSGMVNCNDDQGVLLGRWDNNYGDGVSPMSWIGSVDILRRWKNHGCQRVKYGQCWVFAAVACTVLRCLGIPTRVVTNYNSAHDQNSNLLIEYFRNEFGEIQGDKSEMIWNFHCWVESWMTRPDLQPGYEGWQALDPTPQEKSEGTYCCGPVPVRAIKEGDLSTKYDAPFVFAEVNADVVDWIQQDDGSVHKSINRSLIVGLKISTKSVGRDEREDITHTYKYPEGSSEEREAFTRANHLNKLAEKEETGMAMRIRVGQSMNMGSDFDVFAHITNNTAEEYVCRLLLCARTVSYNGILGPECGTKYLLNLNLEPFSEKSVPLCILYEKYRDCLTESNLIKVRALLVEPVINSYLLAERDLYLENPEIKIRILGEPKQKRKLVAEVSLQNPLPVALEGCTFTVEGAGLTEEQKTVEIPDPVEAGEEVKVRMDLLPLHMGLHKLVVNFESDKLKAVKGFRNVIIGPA
Method: Inhibition data were determined using the fluorescent transamidation assay (dansylcadaverine incorporation into glutamine-donor substrate N,N-dimethyl casein, DCC-assay). Briefly, to 15 μL of ZED1227 solution (dissolved and serial diluted in 2% (v/v) DMSO/assay buffer), 285 μL assay buffer [47.5 mM tris(hydroxymethyl)aminomethane, 9.5 mM CaCl2, 9.5 mM glutathione, 2.4% (v/v) glycerol, 190 mM NaCl, pH 8.0] containing dansylcadaverine (15.9 μM), N,N-dimethyl casein (3.8 μM) and the indicated recombinant transglutaminase enzyme [0.95 μg/mL hTG1 (T035), 0.81 μg/mL hTG2 (T022), 0.83 μg/mL hTG6 (T021), all from Zedira] were added, mixed and the kinetic measurement started immediately. In the case of hFXIII-A2 (0.83 μg/mL, T027, Zedira), the assay buffer contained human α-thrombin (5.2 × 10^−3 U/μL, T056, Zedira). The mixture was incubated for 20 min at room temperature to activate FXIII. In the case of hTG3a (0.81 μg/mL, T013, Zedira), full enzymatic activity was obtained by incubation for 80 min at 37 °C in assay buffer before addition of the inhibitor and start of the kinetics.
Fluorescence emission was continuously monitored for 30 min at λem = 500 nm (λex = 330 nm) and 37 °C using a CLARIOstar fluorescence plate reader (BMG Labtech, Ortenberg, Germany). All measurements were performed in triplicate. The respective IC50 (and IC90 for TG2) values were calculated by non-linear regression using the MARS software package (BMG Labtech). An irreversible-acting inhibitor, such as ZED1227, should, correctly, be characterized by the second-order rate constant k2nd, as detailed by Keillor [46]. However, such data are rather abstract and difficult to comprehend.
To facilitate comparability during lead structure optimization and to roughly estimate concentrations needed at the target site, the apparent IC50 values (calculated by four-parameter non-linear fit by MARS software) for irreversible inhibitors are more instructive and are therefore reported. Further, we report the potency of commercially available reference inhibitors Z006 (“Z-DON”), Z013 (ZED754), and T101 (all Zedira). To gain deeper mechanistic insight, we discuss the second-order rate constants (k2nd) published for Z006 and ZED754 in relation to their respective IC50 values.

[2] = target: TG2; parameters: method as in PMID 32045569; settings: TG2 catalyzed hydrolysis of Z-Glu(HMC)-Gly-OH at pH 6.5; cited from earlier work

IC50 [1] [nM] | SMILES | Fold less potent compared to ZED1227 (hTG2) [1] | Ki [2] [nM] | k2nd (second-order rate constant) [2]
70 | COC(=O)[C@H](CC(C)C)NC(=O)[C@@H]1CCCN1C(=O)[C@@H](NC(=O)[C@H](CCC(=O)C=[N+]=[N-])NC(=O)OCc1ccccc1)C(C)C [Z006, Z-DON-Val-Pro-Leu-OMe] (Cbz-[DON]VPL-OMe) | – | 96 | 191,000 M^−1s^−1
1780 | CC(=O)CSc1n(C)c(C)c(C)[n+]1C.[Cl-] [T101] | 33 fold | – | –

SMILES | IC50 [1] [nM] | Fold less potent compared to ZED1227 (hTG2) [1] | Ki [2] [nM] | k2nd (second-order rate constant) [2]
CCOC(=O)/C=C/CC[C@H](NC(=O)OCc1ccccc1)C(=O)N[C@@H](CCC(N)=O)C(=O)N1CCC[C@H]1C(=O)N[C@@H](CC(C)C)C(=O)OC [ZED754] (Cbz-[Nle(5E-ene,6-CO2Et)]QPL-OMe) | 182 | about 3.5 fold | 450 | 51,500 M^−1s^−1
